Experiment [1] addresses T1, CB2 receptors (Homo sapiens, UniProt P34972). Kind of experiment: Radioligand competition binding of [^3H]-CP55940, CHO-K1 cell membranes. Further details: host or cells: CHO-K1 beta-arrestin cells. Particulars: [^3H]-CP55940 0.3 nM, n=13. On the procedure:
(§1) CHO-K1 beta-arrestin cells (DiscoveRx Inc., Fremont, Calif.) expressing human CB1 and human CB2 were cultured in F-12 Nutrient Mixture (HAM) supplemented with 10% FBS, 300 μg ml-1 hygromycin and 800 μg ml-1 geneticin (G418). Cells were incubated in a humidified atmosphere at 37° C. with 5% CO2.
(§2) Stably transfected cells or spleen tissue were homogenized in 15 mmol L-1 Hepes, 0.3 mmol L-1 EDTA, 1 mmol L-1 EGTA, 2 mmol L-1 MgCl2, complete EDTA-free protease inhibitor (Roche Applied Science, Rotkreuz, Switzerland), pH 7.4 using a glass potter and centrifugation at 47,800 g at 4° C. for 30 min. The pellet was then rehomogenized twice in the same buffer and centrifuged (47,800 g, 4° C., 30 min). […]
(§3) For competition binding, membrane preparations were incubated either with 0.3 nM of [^3H]-CP55940 in the presence or absence of increasing concentrations of unlabeled (R^1═CH3) compound of formula (I) or with 1.5 nM compound of formula (I) and increasing amounts of membranes (2.5-80 μg) in the presence or absence of CP55940 (10 μM) for 60 min at 30° C. in a final volume of 0.2 mL of 50 mmol L-1 Tris-HCl, 5 mmol L-1 MgCl2, 2.5 mmol L-1 EGTA, 0.1% fatty acid-free BSA and 1% DMSO, pH 7.4, buffer, gently shaking. […] IC50 values and Hill slopes were determined by a four parameter logistic model using ActivityBase (ID Business Solution, Ltd.).
In general terms: In a radioligand displacement assay an active substance lowers the binding of a labelled ligand.

The next experiment deals with T2, human CB1 receptors (Homo sapiens, UniProt P21554).
T2 construct: host or cells: CHO-K1 beta-arrestin cells
T2 sequence (P21554 whole entry): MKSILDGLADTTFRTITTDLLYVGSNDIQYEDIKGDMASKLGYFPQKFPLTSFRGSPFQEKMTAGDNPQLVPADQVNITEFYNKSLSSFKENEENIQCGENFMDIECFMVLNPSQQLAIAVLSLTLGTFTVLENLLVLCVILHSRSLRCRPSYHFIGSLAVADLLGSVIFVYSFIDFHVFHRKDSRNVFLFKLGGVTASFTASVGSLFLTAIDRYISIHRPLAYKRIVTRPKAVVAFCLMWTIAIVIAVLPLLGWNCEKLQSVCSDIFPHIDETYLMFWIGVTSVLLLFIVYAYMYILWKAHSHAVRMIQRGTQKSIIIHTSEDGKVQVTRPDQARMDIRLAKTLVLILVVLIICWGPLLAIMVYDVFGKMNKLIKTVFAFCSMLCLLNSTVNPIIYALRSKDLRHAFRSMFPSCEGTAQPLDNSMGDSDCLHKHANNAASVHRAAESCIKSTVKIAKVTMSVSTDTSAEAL
Described as above. The settings on record: [^3H]-CP55940 0.3 nM, n=6. As for the experimental part: as §1, §2, §3

For experiment [2], the target named is T3, CB2 receptors (Mus musculus, UniProt P47936).
T3 construct: from tissue; host or cells: mouse spleen (wild type)
T3 sequence (P47936 whole entry): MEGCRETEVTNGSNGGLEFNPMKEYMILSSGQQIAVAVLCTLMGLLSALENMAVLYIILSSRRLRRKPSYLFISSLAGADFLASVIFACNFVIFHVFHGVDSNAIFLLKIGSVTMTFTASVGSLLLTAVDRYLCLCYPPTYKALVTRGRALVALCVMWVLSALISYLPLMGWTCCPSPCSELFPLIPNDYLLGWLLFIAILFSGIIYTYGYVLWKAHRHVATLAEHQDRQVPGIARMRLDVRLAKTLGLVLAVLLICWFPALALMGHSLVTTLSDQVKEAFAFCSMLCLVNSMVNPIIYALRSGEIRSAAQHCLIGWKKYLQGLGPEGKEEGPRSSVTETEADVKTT
Kind of experiment: Radioligand binding (1.5 nM) with increasing amounts of membranes, mouse spleen tissue WT. Particulars: 1.5 nM radioligand. On the procedure:
(§4) Stably transfected cells or spleen tissue were homogenized in 15 mmol L-1 Hepes, 0.3 mmol L-1 EDTA, 1 mmol L-1 EGTA, 2 mmol L-1 MgCl2, complete EDTA-free protease inhibitor (Roche Applied Science, Rotkreuz, Switzerland), pH 7.4 using a glass potter and centrifugation at 47,800 g at 4° C. for 30 min. The pellet was then rehomogenized twice in the same buffer and centrifuged (47,800 g, 4° C., 30 min). The final pellet was then resuspended in 75 mmol L-1 Tris, 0.3 mmol L-1 EDTA, 1 mmol L-1 EGTA, 12.5 mmol L-1 MgCl2, 250 mmol L-1 sucrose, pH 7.4 at a protein concentration of 1 to 3 mg mL-1, aliquoted, frozen on dry ice and stored at −80° C.
as §3

For another experiment, the target named is T4, mouse CB2 receptors (Mus musculus, UniProt P47936).
T4 construct: from tissue; host or cells: mouse spleen (wild type)
T4 sequence (P47936 whole entry): as above
Kind of experiment: Radioligand saturation binding using mouse spleen tissue WT. As for the experimental part: as §4
Saturation binding was performed with 0.05 to 2.4 nM compound of formula (I) and 40 μg of membrane protein. CP55940 (10 μM) was used to define nonspecific binding. Assay buffer consisted of 50 mmol L-1 Tris-HCl, 5 mmol L-1 MgCl2, 2.5 mmol L-1 EGTA, and 0.1% fatty acid-free BSA, pH 7.4. Assays were initiated by addition of membranes in a final volume of 250 μl/well. Assays were incubated for 2 h at room temperature and then vacuum filtered and rinsed with wash buffer (50 mmol L-1 Tris-HCl, 5 mmol L-1 MgCl2, 2.5 mmol L-1 EGTA, and 0.5% fatty acid-free BSA, pH 7.4) on a Filtermate cell harvester through Packard GF/B filters presoaked in 0.3% polyethylenimine.

Experiment [3] in a line: Radioligand binding using mouse spleen KO (CB2 deficient mice). The settings on record: mouse spleen tissue from CB2 deficient mice, increasing amounts of membranes. As for the experimental part:
as §4, §3

The target in experiment [4] is T1, CB2 receptors. Kind of experiment: Binding of HU-910 / [^3H]-HU-910 to CB2 receptors. Particulars: CB2 receptors labeled with [^3H]-CP55940.

T1 sequence (P34972 whole entry): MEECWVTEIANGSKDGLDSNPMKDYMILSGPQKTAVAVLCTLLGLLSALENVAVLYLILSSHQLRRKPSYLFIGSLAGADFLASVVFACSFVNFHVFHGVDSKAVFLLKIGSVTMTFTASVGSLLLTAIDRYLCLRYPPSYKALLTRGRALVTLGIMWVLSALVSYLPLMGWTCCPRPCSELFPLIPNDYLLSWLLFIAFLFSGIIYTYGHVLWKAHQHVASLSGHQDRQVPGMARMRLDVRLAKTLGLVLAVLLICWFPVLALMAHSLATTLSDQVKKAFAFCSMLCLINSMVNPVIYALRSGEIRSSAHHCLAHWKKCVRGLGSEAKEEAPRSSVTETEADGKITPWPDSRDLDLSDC

`Cn1c(C(C)(C)C)cc(=NC(=O)c2cc(C(F)(F)F)ccc2OCC(C)(C)O)n1CC1CCC1`: the values for the inhibition constant (Ki) on CB2 receptors [1] and at human CB1 receptors were 1.07 nM and 3890 nM, respectively.

Consider `[3H]C([3H])([3H])n1c(C(C)(C)C)c/c(=N\C(=O)c2cc(C(F)(F)F)ccc2OCC(C)(C)O)n1CC1CCC1` [Example 1, (NE)-N-[5-tert-butyl-2-(cyclobutylmethyl)-1-(tritritiomethyl)pyrazol-3-ylidene]-2-(2-hydroxy-2-methyl-propoxy)-5-(trifluoromethyl)benzamide], for which the specific binding entry is listed as “high specific binding” at CB2 receptors [2] and “lack of specific binding” in experiment [3]. For the same molecule, the “saturability of specific binding” value at mouse CB2 receptors is “saturable”. Moreover, the “CB2 receptor expression level (Bmax)” value at mouse CB2 receptors (saturation binding) was found to be 430 fmol/mg. Further, at mouse CB2 receptors (saturation binding, read-out: half maximal affinity (Kd)), the equilibrium dissociation constant (Kd) (usually the equilibrium constant for the complex coming apart) was 0.58 nM.

For the molecule `CCCCCCC(C)(C)c1cc(OC)c(C2=C[C@H]3CC[C@]2(CO)C3(C)C)c(OC)c1` [HU-910], the “binding to CB2 receptors” value on CB2 receptors [4] is “selectively and competitively binds to CB2 receptors”.

Source of the values: patent US10227308B2, “Radiolabeled cannabinoid receptor 2 ligand” (Hoffmann-La Roche Inc., priority 2014, dated 2019).
